The values that follow come from patent US20240368084A1, “STING MODULATORS, COMPOSITIONS, AND METHODS OF USE” (University of South Florida, priority 2021, published 2024).

The assay addresses His-labeled STING (Homo sapiens, UniProt Q86WV6). Put plainly: Microscale thermophoresis (MST) binding assay. To be noted: for Confidence: confidence class by MST shift units; for Dissociation Constant: MST, incubating with 50 nM 2,3-cGAMP. As for the experimental part: Nanotemper Monolith NT.115 labeled thermophoresis machine was used with standard treated capillary tubes using samples comprised of labeled protein and titrations of small molecule in 1×PBS. […] Detection of the protein was performed using the blue detection channel with LED excitation power set to 90% and MST set to high allowing 3 s prior to MST on to check for initial fluorescence differences, 25 s for thermophoresis, and 3 s for regeneration after MST off.
Detection of the protein was performed using the blue detection channel with LED excitation power set to 90% and MST set to high allowing 3 s prior to MST on to check for initial fluorescence differences, 25 s for thermophoresis, and 3 s for regeneration after MST off. Analysis was performed using M.O. Affinity Analysis Software with difference between initial fluorescence measured in the first 5 s as compared with thermophoresis at 15 s at 15 different analyte concentrations ranging from 100 zM to 100 μM and exported into Graphpad Prism v.8 using a Log inhibitor v. response 4 parameter fit.
Confidence is categorized as follows: 1=low confidence (<2 MST shift unit−non-statistical); 2=mid confidence (2-3 MST shift units−intermediate); 3=high confidence ([…]−statistical). Dissociation constants are categorized as follows: A<1 μM; 1 μM≤B<100 μM; […]; 10 μM≤D<100 μM.
Reference compounds were assayed using the same protocol.

Chain of His-labeled STING (Q86WV6 whole entry H232R): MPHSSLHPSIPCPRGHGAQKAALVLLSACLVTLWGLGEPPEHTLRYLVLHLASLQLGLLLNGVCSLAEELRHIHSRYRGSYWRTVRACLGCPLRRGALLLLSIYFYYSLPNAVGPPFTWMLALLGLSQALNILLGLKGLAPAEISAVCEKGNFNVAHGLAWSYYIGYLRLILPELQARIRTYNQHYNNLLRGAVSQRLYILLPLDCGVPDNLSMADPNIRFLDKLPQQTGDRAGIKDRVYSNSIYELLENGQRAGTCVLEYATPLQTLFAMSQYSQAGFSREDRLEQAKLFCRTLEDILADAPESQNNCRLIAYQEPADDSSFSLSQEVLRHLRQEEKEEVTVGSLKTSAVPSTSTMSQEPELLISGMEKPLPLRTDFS

Regarding `Cc1c(Cl)cccc1Nc1ncccc1COCC(O)CO` (stereo not drawn) [Compound 1], the Confidence is reported as 1 (1=low confidence (<2 MST shift unit−non-statistical)).
For `Cc1c(Cl)cccc1Nc1ncccc1CO` [Compound 4], the Confidence is given as 2 (2=mid confidence (2-3 MST shift units−intermediate)).
For the compound `COC(=O)c1cccnc1Nc1cccc(Cl)c1C` [Compound 9], the Confidence is on record as 3 (3=high confidence (>2 MST shift units−statistical)).
Turning to `CCOC(=O)c1cccnc1Nc1cccc(Cl)c1C` [Compound 10], the “Dissociation Constant” value is given as “Low R^2” and the Confidence is on record as 1 (1=low confidence (<2 MST shift unit−non-statistical)).
For `CCCOC(=O)c1cccnc1Nc1cccc(Cl)c1C` [Compound 11], the Confidence is on record as 1 (1=low confidence (<2 MST shift unit−non-statistical)).
In the case of `C#CCOC(=O)c1cccnc1Nc1cccc(Cl)c1C` [Compound 13], the Confidence was 2 (2=mid confidence (2-3 MST shift units−intermediate)).
In the case of `CNC(=O)c1cccnc1Nc1cccc(Cl)c1C` [Compound 14], the Confidence is 2 (2=mid confidence (2-3 MST shift units−intermediate)).
As for `CCNC(=O)c1cccnc1Nc1cccc(Cl)c1C` [Compound 15], the Confidence is listed as 1 (1=low confidence (<2 MST shift unit−non-statistical)).
For the compound `CCCNC(=O)c1cccnc1Nc1cccc(Cl)c1C` [Compound 16], the Confidence is 2 (2=mid confidence (2-3 MST shift units−intermediate)).
`C=CCNC(=O)c1cccnc1Nc1cccc(Cl)c1C` [Compound 17]: the Confidence is 1 (1=low confidence (<2 MST shift unit−non-statistical)).
For `Cc1c(Cl)cccc1Nc1ncccc1C(=O)OCC(O)CO` (stereo not drawn) [Compound 19], the Confidence is recorded as 1 (1=low confidence (<2 MST shift unit−non-statistical)).
As for `CCCCC(=O)c1cccnc1Nc1cccc(Cl)c1C` [Compound 21], the Confidence is 2 (2=mid confidence (2-3 MST shift units−intermediate)).
In the case of `Cc1c(Br)cccc1Nc1ncccc1C(=O)O` [Compound 23], the Confidence is given as 3 (3=high confidence (>2 MST shift units−statistical)).
With `COC(=O)c1cccnc1Nc1cccc(Br)c1C` [Compound 24], the Confidence is listed as 1 (1=low confidence (<2 MST shift unit−non-statistical)).
As to `Cc1c(Nc2ncccc2C(=O)O)cccc1C(F)(F)F` [Compound 27], the Confidence was 3 (3=high confidence (>2 MST shift units−statistical)).
For `Cc1c(Cl)cccc1Nc1ccccc1C(=O)O` [Compound 36, Tolfenamic acid, reference compound], the “Dissociation Constant” value is on record as “No Binding” and the Confidence is given as 1 (1=low confidence (<2 MST shift unit−non-statistical)).
Consider `Cc1c(Cl)cccc1Nc1ncccc1C(=O)OCCCOC(=O)c1cccnc1Nc1cccc(Cl)c1C` [Compound 41], for which the Confidence is 1 (1=low confidence (<2 MST shift unit−non-statistical)).
For `Cc1c(Br)cccc1Nc1ncccc1C(=O)OCC(O)CO` (stereo not drawn) [Compound 42], the Confidence was 2 (2=mid confidence (2-3 MST shift units−intermediate)).
`Cc1c(F)cccc1Nc1ncccc1C(=O)OCC(O)CO` (stereo not drawn) [Compound 43]: the Confidence is recorded as 1 (1=low confidence (<2 MST shift unit−non-statistical)).
On to `COC(=O)c1cccnc1Nc1cccc(F)c1C` [Compound 44], for which the Confidence is reported as 1 (1=low confidence (<2 MST shift unit−non-statistical)).
`Cc1cccc(Nc2ccccc2C(=O)O)c1C` [Compound 45]: the “Dissociation Constant” value was “No Binding” and the Confidence is listed as 1 (1=low confidence (<2 MST shift unit−non-statistical)).
Turning to `Cc1cccc(Nc2ccccc2C(=O)OCC(O)CO)c1C` (stereo not drawn) [Compound 46], the “Dissociation Constant” value is recorded as “No Binding” and the Confidence is on record as 1 (1=low confidence (<2 MST shift unit−non-statistical)).
With `Cc1cccc(Nc2ncccc2C(=O)O)c1C` [Compound 47], the “Dissociation Constant” value was “No Binding” and the Confidence is given as 1 (1=low confidence (<2 MST shift unit−non-statistical)).
For `Cc1cccc(Nc2ncccc2C(=O)OCC(O)CO)c1C` (stereo not drawn) [Compound 48], the “Dissociation Constant” value is listed as “No Binding” and the Confidence is 1 (1=low confidence (<2 MST shift unit−non-statistical)).
As for `Cc1c(Cl)cccc1Nc1ncccc1C(=O)OCCCCOC(=O)c1cccnc1Nc1cccc(Cl)c1C` [Compound 49], the Confidence is 1 (1=low confidence (<2 MST shift unit−non-statistical)).
As to `Cc1c(Cl)cccc1Nc1ncccc1C(=O)OCCCCCOC(=O)c1cccnc1Nc1cccc(Cl)c1C` [Compound 50], the Confidence is given as 3 (3=high confidence (>2 MST shift units−statistical)).
With `NC(=O)NC1NC(=O)NC1=O` (stereo not drawn) [Compound 52], the Confidence is reported as 3 (3=high confidence (>2 MST shift units−statistical)).
